Series [1] relates to EGFR signaling in SW480 cells. The series can be described thus: EGFR‐related signaling cascade (immunoblot). It is filed as cell-based, human. To be noted: SW480, serum‐starved, 15 μM DC‐2 for 6 h. On the procedure:
(§1) SW480 and SW620 cells (1,200,000) were seeded into a 6‐well plate. The next day, cells were once washed with PBS and starved for 18 h with DMEM + 0.2% BSA. Next, 15 μM DC‐2 diluted in DMEM + 0.2% BSA was incubated with the cells for 6 h. Control wells were only treated with the starvation medium. Afterward, all wells were washed once with PBS and 200 ng ml^−1 EGF diluted in DMEM + 0.2% BSA was added for 15 min. Cells were again washed once with PBS and ice‐cold lysis buffer (25 mM Tris, 150 mM NaCl,1 mM TCEP, 2 mM EDTA, 1% Triton‐X‐100, pH 7.4) supplemented with Halt Protease and Phosphatase Inhibitor Cocktail (Thermo Fisher) was added to scrape the cells from the well. Lysates were incubated on ice for 30 min slightly shaking. After centrifugation for 30 min at 14,000 rpm at 4 °C, lysates were mixed with 4X SDS‐PAGE loading buffer (200 mM Tris‐HCl pH 6.8, 400 mM dithiothreitol, 8% SDS, 0.4% bromophenol blue, and 40% glycerol) and heated at 95 °C for 5 min. Protein samples were analyzed by SDS‐PAGE and immunoblotting. The following antibodies were used: anti‐EGFR (Cell Signaling Technology (CST) Cat#4267), anti‐pEGFR (CST Cat #3777), anti‐AKT (CST Cat#9272); anti‐pAKT (CST Cat#4060); anti‐ERK1/2 (CST Cat#4695); anti‐pERK1/2 (CST Cat#4370); anti‐β‐actin‐horseradish peroxidase (HRP) (Santa Cruz Biotechnology Cat# sc‐47778 HRP); or anti‐rabbit‐HRP conjugate (CST Cat#7074S). Images were cropped, processed, and quantified using the ImageLab software (BioRad).

The subject of series [2] is EGFR signaling in SW620 cells. The series can be described thus: EGFR‐related signaling cascade (immunoblot). It is filed as cell-based, human. To be noted: SW620 (low EGFR expression), serum‐starved, 15 μM DC‐2 for 6 h, ± 200 ng ml^−1 EGF 15 min, n = 3. On the procedure:
as §1

Series [3] can be described thus: Peptide incubation in media and identification of peptide species (LC-MS). It is filed as physicochemical. On the procedure: (§2) Hela cells (15,000) were seeded into a 96-well plate. Cells were treated with suitable peptide concentrations diluted in the corresponding serum-free culture medium. After 1 h peptide incubation under standard growth conditions, the positive control was either directly treated with lysis solution or the supernatant was exchanged for serum-free culture medium and the plate was incubated for further 5 h under growing conditions. The CytoTox-ONE™ Reagent was added and incubated at RT for 10 minutes. Finally, the Stop Solution was added and the fluorescence was measured at 595 nm (λex = 550 nm) on an infinite M200 plate reader (Tecan) and normalized to the positive control cells.
Red blood cells (RBCs) were washed three times in PBS by centrifug ing at 4 °C and 3,000 x g for 5 min and diluted to 5% in PBS. The desired peptide concentrations diluted in PBS were added into a 96-well plate. Next, 5% RBCs in PBS were added into the wells and incubated for 24 h at 37 °C and 5% CO2. As a positive control, RBCs were mixed with 10% Triton X-100 in PBS. After the incubation time was completed, the plate was centrifuged at 2,500 x g for 3 min at RT and 100 μL of the supernatant was transferred into a fresh 96 -well plate. Lastly, the absorption (λ=560 nm) was measured on the infinite M200 plate reader (Tecan). For the evaluation, the measured absorption of the Triton-X-100 treatment was set to a hemolysis rate […]
30,000 HeLa cells were seeded into an 8-well. Cells were stained for 10 min with the Hoechst 33342 nuclear dye and transferred to the microscope UltraView VoX Spinning Disk Confocal Microscope (Perkin Elmer). 5 µM CF-DC-2 were added to the cells. Cells were imaged on a Plan-Apo Tirf 60X oil objective (NA 1.49, Nikon) at 37°C a nd 5% CO2. […]
mixed with 5 µl TFA. […] Finally, the different peptide species were analyzed by analytical HPLC ESI-MS (LTQ XL, Thermo Scientific) using a gradient of 10% to 60% of acetonitrile (ACN) in ddH2O + 0.1% formic acid (FA) on an Aeris 3.6 µm PEPTIDE XB-C18 100 LC column (Phenomenex).

Series [4] has as its system HeLa cells. Put plainly: Live‐cell fluorescence imaging of peptide uptake. In kind it is cell-based. The protocol: HeLa (40,000), MDA‐MB‐231 (30,000), or HFF1 (55,000) cells were seeded into an 8‐well ibidi. Cells were treated for 30 min with 5 μM of CF‐labeled peptide diluted in the appropriate serum‐free media. The cell nuclei were stained with the Hoechst 33342 nuclear dye for the last 10 min of the total incubation time. Afterward, cells were washed three to four times using serum‐free medium and finally, medium containing FBS was added for the microscopy. Live fluorescence microscopy analyses were performed on the LSM 980 with Airyscan 2 Inverse Confocal Laser Scanning Microscope (Carl Zeiss) on a 63X Plan‐Apochromat oil objective (NA 1.4, Zeiss) at 37 °C and 5% CO2 or on the BZ‐X810 (Keyence) using a 60X Plan‐Apochromat oil objective (NA 1.4, Keyence). Images were cropped and processed using Fiji.
as §2
Red blood cells (RBCs) were washed three times in PBS by centrifug ing at 4 °C and 3,000 x g for 5 min and diluted to 5% in PBS. The desired peptide concentrations diluted in PBS were added into a 96-well plate. Next, 5% RBCs in PBS were added into the wells and incubated for 24 h at 37 °C and 5% CO2. As a positive control, RBCs were mixed with 10% Triton X-100 in PBS. […] Lastly, the absorption (λ=560 nm) was measured on the infinite M200 plate reader (Tecan). For the evaluation, the measured absorption of the Triton-X-100 treatment was set to a hemolysis rate […]

No end group written: not given here.

As to “GLRKRLRKFRNKKMDHHCPW-NH2 [DC‐2, CPP sC18* fused to the DHHC motif derived from ZDHHC2/3/6/7/15/16/20]”, in series [1] (n = 3 (Figure 8B)), the “ERK and AKT phosphorylation, peptide only vs untreated” value was “slight increase in ERK and AKT phosphorylation”. For the same substance, the “EGFR and ERK phosphorylation, peptide and EGF vs EGF only” value in series [1] (then 200 ng ml^−1 EGF 15 min, n = 3 (Figure 8B,C)) is “increase in EGFR and ERK phosphorylation”. Further, in series [2], the “effects on EGFR signaling” value was “no effects”. For the same substance, the “peptide species observed in medium lacking L‐cystine” value in series [3] (5 µM CF-DC-2 in serum-free medium lacking L-cystine and L-methionine, LC‐MS (Figure S8A)) is “mostly reduced peptide was observed”. The “peptide species observed in normal cell culture medium” value in series [3] (5 µM CF-DC-2 in serum-free medium, before addition to HeLa cells and after 30 min at 37 °C, LC‐MS, Δmass = +119 Da (Figure S8A)) is recorded as “S‐cysteinylation at the cysteine”. In addition, the “disulfide dimer formation in normal cell culture medium” value in series [3] (5 µM CF-DC-2 in serum-free medium, before addition to HeLa cells or after 30 min at 37 °C, LC‐MS (Figure S8A)) is on record as “did not observe the disulfide dimer”. Besides, the “time‐lapse cellular uptake” value in series [4] (5 μM CF-DC-2, imaged every 10 sec for 30 min (Video 1)) is recorded as “rapid cellular uptake”. Further, the intracellular uptake pattern result in series [4] (30 min, 5 μM CF‐labeled peptides, confocal laser scanning microscopy (Figure 3G)) is “diffuse cytosolic pattern”.

Source of the values: paper PMC12117998, “First Steps toward the Design of Peptides that Influence the Intracellular Palmitoylation Machinery” (Chembiochem, 2025).
